The data set in a line: Water solubility by 1H-qNMR in D2O. In kind it is physicochemical. The following applies: 298 K.

In the case of `Nc1ccc(S(=O)(=O)Nc2ncccn2)cc1` [AB-4, sulfadiazine], the “Water Solubility” value came to 112 µg/mL.
As to `NNC(=O)c1ccncc1` [AB-5, isoniazid], the “Water Solubility” value came to 5350 µg/mL.
Regarding `COc1cc(Cc2cnc(N)nc2N)cc(OC)c1OC` [AB-2, trimethoprim], the “Water Solubility” value was 284 µg/mL.

For the origin of these results see PMC12029531, “Selenium in Action: Exploring the Biological Wonders of Hydroselenite Salts” (Molecules, 2025).
